Data on 19 compounds can be found in patent US12497365B2, “4-pyridinyl formamide compound or derivative thereof, preparation method therefor, herbicidal composition and use thereof” (Qingdao Kingagroot Chemical Compound Co., Ltd., priority 2019, dated 2025).

The structures appear in SMILES notation.

Common to all, as to assay: Weeding effect in post-emergence stage
Holding throughout (assay type): in vivo
Holding throughout (conditions): active ingredient 2000 g/ha, 3 weeks after application, fresh weight control rate

For test [1], the system named is Descurainia sophia. The gist of the method:
(§1)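 Control of growth was scored on fresh weight 3 weeks after a post-emergence spray-tower application. Rates were 2000, 1000, 500, 250 or 125 g/ha, formulated in acetone/Tween 80 plus methyl oleate concentrate (1.5 L/ha), and applied to potted plants at the 2-3 leaf stage.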

Test [2] relates to Chenopodium album. The gist of the method:
as §1

The subject of test [3] is Amaranthus retroflexus L. In outline:
as §1

The test system of test [4] is Abutilon theophrasti. In outline:
as §1

In the case of `Cn1nnnc1NC(=O)c1ccnc(-c2cncnc2)c1Cl` [Compound 1-156], the “Weeding effect, activity level (growth control rate), Descurainia sophia” value (from here on “Weeding effect … Descurainia sophia”) in test [1] is listed as 5 (Level 5: growth control rate is above 85%). The “Weeding effect, activity level (growth control rate), Chenopodium album” value (from here on “Weeding effect … Chenopodium album”) in test [2] was 5 (Level 5: growth control rate is above 85%). In addition, the “Weeding effect, activity level (growth control rate), Amaranthus retroflexus L.” value (“Weeding effect … Amaranthus retroflexus L.” for short) in test [3] is 5 (Level 5: growth control rate is above 85%). For the same compound, the “Weeding effect, activity level (growth control rate), Abutilon theophrasti” value (“Weeding effect … Abutilon theophrasti” for short) in test [4] is 5 (Level 5: growth control rate is above 85%).
As to `Cn1nnnc1NC(=O)c1ccnc(-c2cnc(Cl)nc2)c1Cl` [Compound 1-157], in test [1], the “Weeding effect … Descurainia sophia” value was 5 (Level 5: growth control rate is above 85%). The “Weeding effect … Chenopodium album” value in test [2] is given as 5 (Level 5: growth control rate is above 85%). Moreover, in test [3], the “Weeding effect … Amaranthus retroflexus L.” value was 5 (Level 5: growth control rate is above 85%). Besides, in test [4], the “Weeding effect … Abutilon theophrasti” value is on record as 5 (Level 5: growth control rate is above 85%).
Take `Cn1nnnc1NC(=O)c1ccnc(-c2cnc(F)nc2)c1Cl` [Compound 1-158]: the “Weeding effect … Descurainia sophia” value in test [1] is on record as 5 (Level 5: growth control rate is above 85%). In addition, the “Weeding effect … Chenopodium album” value in test [2] is reported as 5 (Level 5: growth control rate is above 85%). The “Weeding effect … Amaranthus retroflexus L.” value in test [3] is on record as 5 (Level 5: growth control rate is above 85%). Also, the “Weeding effect … Abutilon theophrasti” value in test [4] is recorded as 5 (Level 5: growth control rate is above 85%).
For `Cn1nnnc1NC(=O)c1ccnc(-c2cnc(C#N)nc2)c1Cl` [Compound 1-159], the “Weeding effect … Descurainia sophia” value in test [1] was 5 (Level 5: growth control rate is above 85%). Also, the “Weeding effect … Chenopodium album” value in test [2] is reported as 5 (Level 5: growth control rate is above 85%). The “Weeding effect … Amaranthus retroflexus L.” value in test [3] is given as 5 (Level 5: growth control rate is above 85%). For the same compound, in test [4], the “Weeding effect … Abutilon theophrasti” value is recorded as 5 (Level 5: growth control rate is above 85%).
Regarding `Cn1nnnc1NC(=O)c1ccnc(-c2cnc(N)nc2)c1Cl` [Compound 1-160], the “Weeding effect … Descurainia sophia” value in test [1] is listed as 5 (Level 5: growth control rate is above 85%). Besides, the “Weeding effect … Chenopodium album” value in test [2] is recorded as 5 (Level 5: growth control rate is above 85%). Moreover, in test [3], the “Weeding effect … Amaranthus retroflexus L.” value is on record as 5 (Level 5: growth control rate is above 85%). In addition, the “Weeding effect … Abutilon theophrasti” value in test [4] is recorded as 5 (Level 5: growth control rate is above 85%).
On to `COc1ncc(-c2nccc(C(=O)Nc3nnnn3C)c2Cl)cn1` [Compound 1-161], for which, in test [1], the “Weeding effect … Descurainia sophia” value was 5 (Level 5: growth control rate is above 85%). The “Weeding effect … Chenopodium album” value in test [2] is given as 5 (Level 5: growth control rate is above 85%). The “Weeding effect … Amaranthus retroflexus L.” value in test [3] is 5 (Level 5: growth control rate is above 85%). Further, the “Weeding effect … Abutilon theophrasti” value in test [4] was 5 (Level 5: growth control rate is above 85%).
As for `COc1ncc(-c2nccc(C(=O)Nc3nnnn3C)c2Cl)c(OC)n1` [Compound 1-162], in test [1], the “Weeding effect … Descurainia sophia” value is 5 (Level 5: growth control rate is above 85%). In addition, the “Weeding effect … Chenopodium album” value in test [2] is recorded as 5 (Level 5: growth control rate is above 85%). Moreover, the “Weeding effect … Amaranthus retroflexus L.” value in test [3] is reported as 5 (Level 5: growth control rate is above 85%). The “Weeding effect … Abutilon theophrasti” value in test [4] was 5 (Level 5: growth control rate is above 85%).
For the compound `Cn1nnnc1NC(=O)c1ccnc(-c2ncc(C#N)cn2)c1Cl` [Compound 1-163], the “Weeding effect … Descurainia sophia” value in test [1] is 5 (Level 5: growth control rate is above 85%). Moreover, in test [2], the “Weeding effect … Chenopodium album” value is reported as 5 (Level 5: growth control rate is above 85%). The “Weeding effect … Amaranthus retroflexus L.” value in test [3] was 5 (Level 5: growth control rate is above 85%). The “Weeding effect … Abutilon theophrasti” value in test [4] is 5 (Level 5: growth control rate is above 85%).
As for `Cn1nnnc1NC(=O)c1ccnc(-c2ncc(F)cn2)c1Cl` [Compound 1-164], the “Weeding effect … Descurainia sophia” value in test [1] is reported as 5 (Level 5: growth control rate is above 85%). In addition, the “Weeding effect … Chenopodium album” value in test [2] is 5 (Level 5: growth control rate is above 85%). The “Weeding effect … Amaranthus retroflexus L.” value in test [3] is on record as 5 (Level 5: growth control rate is above 85%). Further, the “Weeding effect … Abutilon theophrasti” value in test [4] was 5 (Level 5: growth control rate is above 85%).
As for `Cn1nnnc1NC(=O)c1ccnc(-c2ccnc(C#N)n2)c1Cl` [Compound 1-165], the “Weeding effect … Descurainia sophia” value in test [1] is 5 (Level 5: growth control rate is above 85%). Also, the “Weeding effect … Chenopodium album” value in test [2] is 5 (Level 5: growth control rate is above 85%). The “Weeding effect … Amaranthus retroflexus L.” value in test [3] is on record as 5 (Level 5: growth control rate is above 85%). In addition, the “Weeding effect … Abutilon theophrasti” value in test [4] is recorded as 5 (Level 5: growth control rate is above 85%).
`Cn1nnnc1NC(=O)c1ccnc(-n2cc(F)cn2)c1Cl` [Compound 1-166]: the “Weeding effect … Descurainia sophia” value in test [1] is 5 (Level 5: growth control rate is above 85%). Moreover, the “Weeding effect … Chenopodium album” value in test [2] is reported as 5 (Level 5: growth control rate is above 85%). The “Weeding effect … Amaranthus retroflexus L.” value in test [3] was 5 (Level 5: growth control rate is above 85%). Further, in test [4], the “Weeding effect … Abutilon theophrasti” value is reported as 5 (Level 5: growth control rate is above 85%).
As to `Cn1nnnc1NC(=O)c1ccnc(-c2cn[nH]c2)c1Cl` [Compound 1-167], the “Weeding effect … Descurainia sophia” value in test [1] is on record as 5 (Level 5: growth control rate is above 85%). For the same compound, the “Weeding effect … Chenopodium album” value in test [2] is reported as 5 (Level 5: growth control rate is above 85%). The “Weeding effect … Amaranthus retroflexus L.” value in test [3] is on record as 5 (Level 5: growth control rate is above 85%). In test [4], the “Weeding effect … Abutilon theophrasti” value is 5 (Level 5: growth control rate is above 85%).
Regarding `Cn1cc(-c2nccc(C(=O)Nc3nnnn3C)c2Cl)cn1` [Compound 1-168], the “Weeding effect … Descurainia sophia” value in test [1] is listed as 5 (Level 5: growth control rate is above 85%). Moreover, the “Weeding effect … Chenopodium album” value in test [2] is listed as 5 (Level 5: growth control rate is above 85%). Also, the “Weeding effect … Amaranthus retroflexus L.” value in test [3] is recorded as 5 (Level 5: growth control rate is above 85%). Also, the “Weeding effect … Abutilon theophrasti” value in test [4] was 5 (Level 5: growth control rate is above 85%).
For `Cc1nn(C)cc1-c1nccc(C(=O)Nc2nnnn2C)c1Cl` [Compound 1-169], the “Weeding effect … Descurainia sophia” value in test [1] is given as 5 (Level 5: growth control rate is above 85%). Moreover, the “Weeding effect … Chenopodium album” value in test [2] was 5 (Level 5: growth control rate is above 85%). In addition, the “Weeding effect … Amaranthus retroflexus L.” value in test [3] is given as 5 (Level 5: growth control rate is above 85%). Further, the “Weeding effect … Abutilon theophrasti” value in test [4] is 5 (Level 5: growth control rate is above 85%).
On to `Cc1c(-c2nccc(C(=O)Nc3nnnn3C)c2Cl)cnn1C` [Compound 1-170], for which the “Weeding effect … Descurainia sophia” value in test [1] is 5 (Level 5: growth control rate is above 85%). Besides, the “Weeding effect … Chenopodium album” value in test [2] is 5 (Level 5: growth control rate is above 85%). Moreover, the “Weeding effect … Amaranthus retroflexus L.” value in test [3] is 5 (Level 5: growth control rate is above 85%). The “Weeding effect … Abutilon theophrasti” value in test [4] is 5 (Level 5: growth control rate is above 85%).
As for `Cc1[nH]ncc1-c1nccc(C(=O)Nc2nnnn2C)c1Cl` [Compound 1-171], the “Weeding effect … Descurainia sophia” value in test [1] was 5 (Level 5: growth control rate is above 85%). In test [2], the “Weeding effect … Chenopodium album” value was 5 (Level 5: growth control rate is above 85%). For the same compound, the “Weeding effect … Amaranthus retroflexus L.” value in test [3] was 5 (Level 5: growth control rate is above 85%). The “Weeding effect … Abutilon theophrasti” value in test [4] is listed as 5 (Level 5: growth control rate is above 85%).
For `CCn1cc(-c2nccc(C(=O)Nc3nnnn3C)c2Cl)cn1` [Compound 1-172], the “Weeding effect … Descurainia sophia” value in test [1] was 5 (Level 5: growth control rate is above 85%). Also, the “Weeding effect … Chenopodium album” value in test [2] was 5 (Level 5: growth control rate is above 85%). In test [3], the “Weeding effect … Amaranthus retroflexus L.” value was 5 (Level 5: growth control rate is above 85%). Also, the “Weeding effect … Abutilon theophrasti” value in test [4] is reported as 5 (Level 5: growth control rate is above 85%).
As to `CCCn1cc(-c2nccc(C(=O)Nc3nnnn3C)c2Cl)cn1` [Compound 1-173], in test [1], the “Weeding effect … Descurainia sophia” value is recorded as 5 (Level 5: growth control rate is above 85%). Also, the “Weeding effect … Chenopodium album” value in test [2] was 5 (Level 5: growth control rate is above 85%). For the same compound, the “Weeding effect … Amaranthus retroflexus L.” value in test [3] is listed as 5 (Level 5: growth control rate is above 85%). For the same compound, in test [4], the “Weeding effect … Abutilon theophrasti” value is 5 (Level 5: growth control rate is above 85%).
As for `Cn1nnnc1NC(=O)c1ccnc(-c2cnn(C(F)F)c2)c1Cl` [Compound 1-174], the “Weeding effect … Descurainia sophia” value in test [1] is recorded as 5 (Level 5: growth control rate is above 85%). In addition, the “Weeding effect … Chenopodium album” value in test [2] is listed as 5 (Level 5: growth control rate is above 85%). Further, the “Weeding effect … Amaranthus retroflexus L.” value in test [3] is 5 (Level 5: growth control rate is above 85%). For the same compound, the “Weeding effect … Abutilon theophrasti” value in test [4] is recorded as 5 (Level 5: growth control rate is above 85%).
